One data set can be described thus: in vivo. The note with it: APP/PS1, mouse, po.
Data set [1] relates to Aβ deposits in brain tissues of APP/PS1 mice. Briefly: In vivo activity in transgenic APP/PS1 mouse model. The following applies: 4-month-old APP/PS1 mice, orally administered for 3.5 months.

A word on the bioavailability: it is the share of a dose that reaches the circulation, judged against a reference dose that is usually intravenous. For the compound `O=C1NCC(c2ccc(-c3csc(C(F)(F)F)c3)c(F)c2F)N1c1ccc2[nH]cnc2c1` (centres unmarked) [Compound 28, 1-(1H-benzimidazol-5-yl)-5-{2,3-difluoro-4-[5-(trifluoromethyl)thiophen-3-yl]phenyl}-imidazolidin-2-one], in “in vivo”, the bioavailability is 25%. For `O=C1NC(=O)N(c2ccc3[nH]cnc3c2)C1c1ccc(-c2nc(C(F)(F)F)cs2)cc1` (centres unmarked) [Compound 37, 1-(1H-benzimidazol-5-yl)-5-{4-[4-(trifluoromethyl)-1,3-thiazol-2-yl]phenyl}imidazolidine-2,4-dione], the “Aβ deposits in brain tissues” value in data set [1] is given as “depletion of Aβ deposits in brain tissues”.

For the origin of these results see US10584120B1, “Benzimidazole compounds and use thereof for treating Alzheimer's Disease or Huntington's Disease” (National Health Research Institutes, priority 2018, dated 2020).
